{"source": "patent US6034231A", "about": "“Human CNP gene and precursor protein” (Suntory Limited, priority 1990, dated 2000)", "test_system": "chick rectum", "conditions": "read-out: EC50, chick rectum relaxant activity; isolated chick rectum", "protocol": "A chick rectum relaxant activity measurement was conducted in accordance with the method of Currie et al. described in Nature, 221, 1-13, 1983.", "note": "Positions of bridges follow the written chain, without caps; N, C: chain ends. No end group written: not given here.", "data": [{"sequence": "DLRVDTKSRAAWARLLQEHPNARKYKGANKKGLSKGCFGLKLDRIGSMSGLGC (disulfide 37-53) [hCNP-53]", "values": [{"measurement": "EC50", "value": "0.87 ± 0.1", "unit": "nM"}]}]}
